Data on 3 compounds can be found in US20230149393A1, “INHIBITORS OF TRPC6 FOR TREATING RESPIRATORY CONDITIONS” (Boehringer Ingelheim International GmbH, priority 2020, published 2023).

One data set deals with TRPC6. The note with it: lung tissue of IPAH patients; cited from earlier work.
For the next data set, the system named is PASMC. As to conditions: cited from earlier work.
The subject of data set [1] is LPS-induced vascular leakage. As to the kind of experiment: Reduction of LPS-induced vascular leakage in a mouse model (BALF protein). The note with it: FIGS. 1A, 1B and 1C; LPS aerosol mouse model.
Data set [2] relates to virus Influenza A (strain: PR8/34/H1N1). As to the kind of experiment: Reduction of H1N1-induced vascular leakage in a mouse model (BALF Evans blue). The data set is classed as in vivo, Mice. The note with it: 3 mg/kg p.o., 2 h after inoculation and once daily day 1 to day 4; day 6 after inoculation. Here is the method: Mice were inoculated intranasally with 200 PFU (Plaque Formation Unit) of virus Influenza A (strain: PR8/34/H1N1). […] was given at 3 mg/kg p.o. 2 h after inoculation and once daily from day 1 to day 4. Evans blue was injected intravenously on day 6, 30 min prior to the euthanasia. […] The supernatant was collected for the measurement of Evans blue by spectrophotometry at the absorbance of 620 nm
At day 6 after inoculation, H1N1 induced lung vascular leakage characterized by an increase in Evans blue extravasation from the blood to the BALF.

The conditions of data set [3]: Phase 1 study, healthy adults; cited from earlier work.

Regarding `COc1ccccc1Oc1c(NS(=O)(=O)c2ccc(C(C)(C)C)cc2)nc(-c2ncccn2)nc1OCCO` [bosentan], the “expression of TRPC6” value in the data set on TRPC6 is reported as “decreases expression of TRPC6”. The “proliferation of PASMC” value with PASMC is “decreases proliferation of PASMC”. On to `COc1cc(C(=O)N2CCC(c3ccc(N)nn3)CC2)ncc1Oc1ccc(F)cc1` [Compound 17, [4-(6-Amino-pyridazin-3-yl)-piperidin-1-yl]-[5-(4-fluoro-phenoxy)-4-methoxy-pyridin-2-yl]-methanone], for which the pulmonary vascular leakage entry in data set [1] is “significantly reduces pulmonary vascular leakage”. Further, in data set [2], the “reduction of BALF Evans blue” value turned out to be 24%. With `COc1cc(C(=O)N2CCC(c3ccc(N)nn3)CC2)ncc1Oc1ccc(F)cc1` [BI 764198], in data set [3], the tolerability entry was “well tolerated”.
